Tests used:
Assay type in all cases: binding
[1] = biological target: T1, CX3CR1 (Homo sapiens, UniProt P49238); experiment: NanoBRET screen HiBiT-CX3CR1 in HEK293; settings: CX3CR1
T1 construct: purchased Promega (in-house HiBiT-GPCR construct library, NanoBRET)
T1 sequence (P49238 1-355): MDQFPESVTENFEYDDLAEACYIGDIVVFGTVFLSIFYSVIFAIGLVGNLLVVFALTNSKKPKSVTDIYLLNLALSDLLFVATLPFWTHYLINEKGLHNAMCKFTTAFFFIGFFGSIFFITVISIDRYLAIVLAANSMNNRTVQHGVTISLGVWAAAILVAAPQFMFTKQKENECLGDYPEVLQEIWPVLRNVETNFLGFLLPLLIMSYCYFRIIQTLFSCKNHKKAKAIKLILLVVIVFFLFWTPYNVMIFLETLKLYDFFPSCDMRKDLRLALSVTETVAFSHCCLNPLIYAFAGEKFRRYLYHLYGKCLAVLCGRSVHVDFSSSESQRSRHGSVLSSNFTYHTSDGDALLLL
Description: (§1) Each tracer candidate was screened across the entire library of HiBiT-GPCR constructs using NanoBRET as the detection modality. As depicted in Figure 4A, the specificity of interactions was evaluated through decrease in BRET due to competitive displacement of a bound tracer by excess parental compound. Each tracer was analyzed for binding to each HiBiT-GPCR fusion in the absence and in the presence of competing parental compound. Briefly, HEK293 cells were transfected with HiBiT-GPCR constructs diluted into promoterless DNA to reduce expression and maximize translocation to the cell surface. Each tracer candidate was then screened at concentrations of 1 μM and 0.1 μM across cells expressing these fusions. Cells were treated for 1.5 h with tracer either alone or in the presence of 20 μM competing parental compound (i.e., control). BRET was measured upon addition of purified LgBiT and subsequent complementation with HiBiT genetically fused to a GPCR. The specificity of interactions was assessed through a decrease in BRET signal due to competitive displacement of the bound tracer. To further gauge the robustness of these interactions, the fold response over the control (i.e., BRETtracer/BRETcontrol) was calculated. We chose a 1.5-fold response, which translates to ≥7-fold signal over noise as the minimal threshold required to score an interaction as positive. […]. Below we highlight the screening results obtained for our exemplary fluorescent tracers based on Clozapine, Amitriptyline and AZD1283.
(§2) HiBiT-GPCR DNA constructs were diluted in 10 mM Tris pH 8 to a final concentration of 0.01 μg/μL, arrayed in 96-well plates and stored at −20 °C. For transfection, HEK293 cells were suspended in Opti-MEM (without phenol red) supplemented with 2% fetal bovine serum (Seradigm) and 100 units/mL penicillin–streptomycin (Gibco) at a final concentration of 220,000 cells/mL and dispensed into white 96-well plates at 90 μL/well. Subsequent transfections and screens were carried using an Agilent Bravo Automated Liquid Handling Platform. First, the 96-well HiBiT DNA arrays were diluted 25-fold in Opti-MEM (without serum or phenol red) to a final concentration of 0.0004 μg/μL and 20 μL of the diluted DNAs were transferred into new 96-well plates. Next, promoterless carrier DNA (1 μg/μL) was diluted 25-fold (0.04 μg/μL) and then dispensed into the diluted arrays at 20 μL/well. Following brief mixing, Viafect transfection reagent (Promega) diluted 16-fold into Opti-MEM was dispensed into the plates at 40 μL/well. After mixing by pipetting, plates were incubated for 10 min on the pipetting station deck. The DNA-transfection reagent complexes were then added to plates containing cells. To facilitate the screen, 10 μL of DNA-transfection reagent complexes were added in duplicates to the top 4 and bottom 4 rows, resulting in two identical 48-well arrays per plate. Plates with transfected cells were incubated for 18–20 h at 37 °C/5% CO2. A screen of each tracer across the entire library using two different concentrations requires duplicate plates of transfected cells. Depending on the number of tracers being screened, transfections can be scaled up using the same ratios. The next day, for each tracer, four 20× screening solutions in tracer dilution buffer (Promega) were prepared: two duplicates at final concentration of 20 μM and two duplicates at a final concentration of 2 μM. A competing unmodified compound was added to one of each duplicate at a final concentration of 400 μM. The four resulting solutions were diluted 4-fold in Opti-MEM without serum or phenol red to generate 5× solutions (5 µM and 0.5 µM tracer +/− 100 μM competing compound). To screen the library, a BioTek MultiFlo FX liquid dispenser was used to dispense 22.5 µL of tracer solution to the top 4 rows and 22.5 µL tracer + competing compound solution to the 4 bottom rows. Plates were briefly mixed on an orbital shaker and incubated for 1.5 h at room temperature. […]

[2] = biological target: T2, FZD5 (Homo sapiens, UniProt Q13467); experiment: NanoBRET screen HiBiT-FZD5 in HEK293; settings: FZD5
T2 construct: purchased Promega (in-house HiBiT-GPCR construct library, NanoBRET)
Description: as §1, §2

[3] = biological target: T3, P2RY6 (Homo sapiens, UniProt Q15077); experiment: NanoBRET screen HiBiT-P2RY6 in HEK293; settings: P2RY6
T3 construct: purchased Promega (in-house HiBiT-GPCR construct library, NanoBRET)
Description: as §1, §2

[4] = biological target: T4, FPR1 (Homo sapiens, UniProt P21462); experiment: NanoBRET screen HiBiT-FPR1 in HEK293; settings: FPR1
T4 construct: purchased Promega (in-house HiBiT-GPCR construct library, NanoBRET)
T4 sequence (P21462 1-350): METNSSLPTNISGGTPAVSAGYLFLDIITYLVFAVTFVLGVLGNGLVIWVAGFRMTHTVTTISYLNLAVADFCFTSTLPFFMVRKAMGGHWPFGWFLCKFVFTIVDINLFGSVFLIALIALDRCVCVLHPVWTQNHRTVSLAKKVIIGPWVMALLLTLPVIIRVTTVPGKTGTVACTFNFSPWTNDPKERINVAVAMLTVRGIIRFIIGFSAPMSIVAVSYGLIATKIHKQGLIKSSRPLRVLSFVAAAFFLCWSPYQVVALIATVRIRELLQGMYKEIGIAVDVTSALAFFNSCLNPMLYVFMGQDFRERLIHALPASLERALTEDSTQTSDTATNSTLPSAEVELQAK
Description: as §1, §2

T3 sequence (Q15077 whole entry): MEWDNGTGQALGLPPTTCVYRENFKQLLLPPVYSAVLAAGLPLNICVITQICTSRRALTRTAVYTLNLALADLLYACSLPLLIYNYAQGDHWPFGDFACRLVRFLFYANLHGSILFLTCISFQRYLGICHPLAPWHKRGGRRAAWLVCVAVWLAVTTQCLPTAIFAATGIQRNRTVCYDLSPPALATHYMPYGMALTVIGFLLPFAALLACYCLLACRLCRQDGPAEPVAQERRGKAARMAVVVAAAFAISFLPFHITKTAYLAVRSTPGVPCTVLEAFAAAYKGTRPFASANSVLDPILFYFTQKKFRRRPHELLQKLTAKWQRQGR
T2 sequence (Q13467 27-585): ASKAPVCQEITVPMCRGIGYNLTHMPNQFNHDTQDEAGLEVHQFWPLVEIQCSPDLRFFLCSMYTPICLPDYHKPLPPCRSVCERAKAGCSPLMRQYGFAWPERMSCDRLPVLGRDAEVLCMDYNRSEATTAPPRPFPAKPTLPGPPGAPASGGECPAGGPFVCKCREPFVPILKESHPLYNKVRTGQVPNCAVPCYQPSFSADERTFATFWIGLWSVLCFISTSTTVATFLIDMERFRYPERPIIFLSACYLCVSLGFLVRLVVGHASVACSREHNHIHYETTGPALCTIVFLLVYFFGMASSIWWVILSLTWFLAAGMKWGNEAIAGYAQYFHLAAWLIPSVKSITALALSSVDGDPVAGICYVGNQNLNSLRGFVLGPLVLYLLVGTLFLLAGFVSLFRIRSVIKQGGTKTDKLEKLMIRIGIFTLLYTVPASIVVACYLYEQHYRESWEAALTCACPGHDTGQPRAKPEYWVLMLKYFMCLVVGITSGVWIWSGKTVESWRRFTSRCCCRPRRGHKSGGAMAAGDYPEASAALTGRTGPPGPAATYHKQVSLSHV

| Compound | NanoBRET Fold Response ([1]; tracer 0.1μM) | NanoBRET Fold Response ([1]; tracer 1μM) | NanoBRET Fold Response ([2]; tracer 0.1μM) | NanoBRET Fold Response ([2]; tracer 1μM) | NanoBRET Fold Response ([3]; tracer 0.1μM) | NanoBRET Fold Response ([3]; tracer 1μM) | NanoBRET Fold Response ([4]; tracer 0.1μM) | NanoBRET Fold Response ([4]; tracer 1μM) | NanoBRET Fold Response ([1]; 0.1μM) | NanoBRET Fold Response ([1]; 1μM) | NanoBRET Fold Response ([2]; 0.1μM) | NanoBRET Fold Response ([2]; 1μM) | NanoBRET Fold Response ([3]; 0.1μM) | NanoBRET Fold Response ([3]; 1μM) | NanoBRET Fold Response ([4]; 0.1μM) | NanoBRET Fold Response ([4]; 1μM) |
| --- | --- | --- | --- | --- | --- | --- | --- | --- | --- | --- | --- | --- | --- | --- | --- | --- |
| COc1ccccc1N1CCN(CCCCN2C(=O)c3ccc(CNC(=O)CCOCCNC(=O)c4ccc(CNC(=O)CCc5ccc6n5[B-](F)(F)[N+]5=C(c7ccc[nH]7)C=CC5=C6)cc4)cc3C2=O)CC1 [NAN-190-3-NB590] | 0.90 | 1.01 | 0.97 | 1.00 | 1.10 | 0.91 | 0.95 | 1.09 | – | – | – | – | – | – | – | – |
| O=C(CCc1ccc2n1[B-](F)(F)[N+]1=C(c3ccc[nH]3)C=CC1=C2)NCc1ccc(C(=O)NCCOCCC(=O)N[C@@H]2CC[C@@]3(O)[C@H]4Cc5ccc(O)c6c5[C@@]3(CCN4CC3CC3)[C@H]2O6)cc1 [Naltrexone-3-NB590] | 1.32 | 0.81 | 0.99 | 0.98 | 0.84 | 0.81 | 0.90 | 0.98 | – | – | – | – | – | – | – | – |
| Cc1cc2c(s1)Nc1ccccc1N=C2N1CCN(CCCNC(=O)CCOCCOCCOCCOCCNC(=O)CCc2ccc3n2[B-](F)(F)[N+]2=C(c4ccc[nH]4)C=CC2=C3)CC1 [Olanzapine-a-2-NB590] | 1.03 | 0.97 | 1.00 | 1.02 | 1.31 | 0.95 | 1.09 | 1.01 | – | – | – | – | – | – | – | – |
| O=C(CCc1ccc2n1[B-](F)(F)[N+]1=C(c3ccc[nH]3)C=CC1=C2)NCc1ccc(C(=O)NCCOCCOCCNCC(O)COc2cccc3ccccc23)cc1 (stereo not drawn) [Propranolol-3-NB590] | – | – | – | – | – | – | – | – | 1.08 | 1.03 | 1.07 | 1.02 | 1.07 | 0.96 | 1.02 | 0.98 |
| O=C(CCc1ccc2n1[B-](F)(F)[N+]1=C(c3ccc[nH]3)C=CC1=C2)NCCOCCOCCNC(=O)OCCOCCN1CCN(C2=Nc3ccccc3Sc3ccccc32)CC1 [Quetiapine-a-2-NB590] | 0.90 | 0.95 | 1.03 | 0.91 | 1.30 | 0.96 | 1.05 | 0.92 | – | – | – | – | – | – | – | – |
| Cc1nc2n(c(=O)c1CCN1CCC(c3noc4cc(F)ccc34)CC1)CCCC2OC(=O)NCCOCCOCCOCCOCCNC(=O)CCc1ccc2n1[B-](F)(F)[N+]1=C(c3ccc[nH]3)C=CC1=C2 (stereo not drawn) [Risperidone-2-NB590] | 1.06 | 1.02 | 0.95 | 0.99 | 1.00 | 1.03 | 0.97 | 0.91 | – | – | – | – | – | – | – | – |
| CC(C)N(CC[C@H](c1ccccc1)c1cc(CCNC(=O)CCOCCOCCOCCOCCNC(=O)CCc2ccc3n2[B-](F)(F)[N+]2=C(c4ccc[nH]4)C=CC2=C3)ccc1O)C(C)C [Tolterodine-2-NB590] | 1.32 | 1.06 | 0.87 | 1.07 | 1.06 | 0.98 | 1.07 | 0.85 | – | – | – | – | – | – | – | – |
| CC(C)N(CC[C@H](c1ccccc1)c1cc(CCNC(=O)c2ccc(CNC(=O)CCc3ccc4n3[B-](F)(F)[N+]3=C(c5ccc[nH]5)C=CC3=C4)cc2)ccc1O)C(C)C [Tolterodine-BZ-NB590] | 0.94 | 0.98 | 1.12 | 1.03 | 1.03 | 1.08 | 1.02 | 1.02 | – | – | – | – | – | – | – | – |
| CCCn1c(=O)c2[nH]c(-c3ccc(OCC(=O)NCCNC(=O)CCOCCNC(=O)c4ccc(CNC(=O)CCc5ccc6n5[B-](F)(F)[N+]5=C(c7ccc[nH]7)C=CC5=C6)cc4)cc3)nc2n(CCC)c1=O [XAC-3-NB590] | 0.87 | 0.83 | 1.13 | 0.95 | 1.06 | 1.12 | 1.15 | 1.10 | – | – | – | – | – | – | – | – |

— PMC8151276, “An Integrated Approach toward NanoBRET Tracers for Analysis of GPCR Ligand Engagement” (Molecules, 2021)
